Results published in PMC11579512, “Deoxybouvardin-glucoside induces apoptosis in non-small cell lung cancer cells by targeting EGFR/MET and AKT signaling pathway” (EXCLI Journal, 2024).

Key:
Type in all cases: cell-based, human
[1] = system: HCC827 cells; assay: Multi-caspase assay, HCC827; design: Caspase+ cells / Total Caspase+ cells / dead cells (multi-caspase assay) / Live cells (multi-caspase assay): unit not given here; details: for cells with activated caspases: 48 h, background 6.52 %
Protocol: (§1) HaCaT cells were grown in DMEM, whereas HCC827 and HCC827GR cells were grown in RPMI 1640. All culture media were supplemented with FBS (10 %) and P/S (1 %), and the cells were grown at 37 °C in 5 % CO2.

[2] = system: HCC827GR cells; assay: Soft agar anchorage-independent growth, HCC827GR; details: 2 weeks
Protocol: The anchorage-independent cell growth assay was performed in 6-well plates with dual agar layers containing 0.6 % agar (lower layer) and 0.3 % agar (upper layer) supplemented with BME, 2 mM L-glutamine, 5 μg/ml gentamicin, and 10 % FBS. After 2 weeks of incubation, the number of colonies was assessed using a microscope (Leica, Wetzlar, Germany), and the mean colony area was analyzed using i-Solution ^TM software (Vancouver, BC, Canada).

[3] = system: HCC827 cells; assay: MTT viability after NAC pretreatment, HCC827; details: for cell viability (relative to untreated = 100.00): HCC827
Protocol: All culture media were supplemented with FBS (10 %) and P/S (1 %), and the cells were grown at 37 °C in 5 % CO2.
The cells were treated with MTT and incubated for 2 h. The supernatants were removed, and the remaining formazan crystals were dissolved in DMSO before absorbance measurement at 570 nm using a Multiscan GO spectrophotometer (Thermo Fisher Scientific, Vantaa, Finland).

[4] = system: HCC827 cells; assay: Annexin V/7-AAD apoptosis, HCC827; design: Early apoptosis / Total apopt / Dead / Live: unit not given here; details: for apoptotic cells (annexin V+): 48 h, background 4.78 %; for Dead / Early apoptosis / Late apoptosis/Dead / Total apopt / Live: HCC827
Protocol: as §1
Apoptosis was measured using a Muse™ Annexin V & Dead Cell Kit (MCH100105, Merck Millipore). The fluorescent signal was analyzed with a Muse™ Cell Analyzer.

[5] = HCC827, DBG 3 nM, mean of samples 1-3
[6] = HCC827, DBG 6 nM, mean of samples 1-3
[7] = HCC827, DBG 12 nM, mean of samples 1-3

## COc1ccc(C[C@H]2C(=O)N[C@@H](C)C(=O)N(C)[C@H]3Cc4ccc(cc4)Oc4cc(ccc4O[C@@H]4O[C@H](CO)[C@@H](O)[C@H](O)[C@H]4O)C[C@@H](C(=O)N[C@H](C)C(=O)N[C@@H](C)C(=O)N2C)N(C)C3=O)cc1 [DBG, deoxybouvardin glucoside]
[1]; DBG 3 nM
  cells with activated caspases: 16.23%
[1]; DBG 6 nM
  cells with activated caspases: 24.10%
[1]; DBG 12 nM
  cells with activated caspases: 25.94%
[1]; [5]
  Caspase+ cells: 4.43
  Caspase+/dead cells: 11.80
  Live cells (multi-caspase assay): 83.72
  Total Caspase+ cells: 16.23
  dead cells (multi-caspase assay): 0.05
[1]; HCC827, DBG 3 nM, sample 1
  Caspase+ cells: 5.19
  Caspase+/dead cells: 10.83
  Live cells (multi-caspase assay): 83.88
  Total Caspase+ cells: 16.02
  dead cells (multi-caspase assay): 0.10
[1]; HCC827, DBG 3 nM, sample 2
  Caspase+ cells: 3.91
  Caspase+/dead cells: 12.71
  Live cells (multi-caspase assay): 83.38
  Total Caspase+ cells: 16.62
  dead cells (multi-caspase assay): 0.00
[1]; HCC827, DBG 3 nM, sample 3
  Caspase+ cells: 4.20
  Caspase+/dead cells: 11.85
  Live cells (multi-caspase assay): 83.89
  Total Caspase+ cells: 16.06
  dead cells (multi-caspase assay): 0.05
[1]; [6]
  Caspase+ cells: 9.84
  Caspase+/dead cells: 14.26
  Live cells (multi-caspase assay): 75.85
  Total Caspase+ cells: 24.10
  dead cells (multi-caspase assay): 0.00
[1]; HCC827, DBG 6 nM, sample 1
  Caspase+ cells: 10.64
  Caspase+/dead cells: 13.33
  Live cells (multi-caspase assay): 76.03
  Total Caspase+ cells: 23.97
  dead cells (multi-caspase assay): 0.00
[1]; HCC827, DBG 6 nM, sample 2
  Caspase+ cells: 9.67
  Caspase+/dead cells: 14.53
  Live cells (multi-caspase assay): 75.65
  Total Caspase+ cells: 24.20
  dead cells (multi-caspase assay): 0.00
[1]; HCC827, DBG 6 nM, sample 3
  Caspase+ cells: 9.21
  Caspase+/dead cells: 14.92
  Live cells (multi-caspase assay): 75.87
  Total Caspase+ cells: 24.13
  dead cells (multi-caspase assay): 0.00
[1]; [7]
  Caspase+ cells: 16.76
  Caspase+/dead cells: 9.18
  Live cells (multi-caspase assay): 73.91
  Total Caspase+ cells: 25.94
  dead cells (multi-caspase assay): 0.08
[1]; HCC827, DBG 12 nM, sample 1
  Caspase+ cells: 17.38
  Caspase+/dead cells: 9.37
  Live cells (multi-caspase assay): 73.00
  Total Caspase+ cells: 26.75
  dead cells (multi-caspase assay): 0.05
[1]; HCC827, DBG 12 nM, sample 2
  Caspase+ cells: 16.62
  Caspase+/dead cells: 9.35
  Live cells (multi-caspase assay): 73.88
  Total Caspase+ cells: 25.97
  dead cells (multi-caspase assay): 0.15
[1]; HCC827, DBG 12 nM, sample 3
  Caspase+ cells: 16.27
  Caspase+/dead cells: 8.82
  Live cells (multi-caspase assay): 74.86
  Total Caspase+ cells: 25.09
  dead cells (multi-caspase assay): 0.05
[2]; DBG 3 nM
  colony number, Control %: 40.00%
  colony size, Control %: 77.33%
[2]; DBG 6 nM
  colony number, Control %: 13.10%
  colony size, Control %: 72.67%
[2]; DBG 12 nM
  colony number, Control %: 0.00%
  colony size, Control %: 0.00%
[3]; DBG 12 nM, mean of 3
  cell viability (relative to untreated = 100.00): 45.66
[3]; DBG 12 nM, replicate 1
  cell viability (relative to untreated = 100.00): 44.99
[3]; DBG 12 nM, replicate 2
  cell viability (relative to untreated = 100.00): 46.50
[3]; DBG 12 nM, replicate 3
  cell viability (relative to untreated = 100.00): 45.48
[3]; NAC 4 mM + DBG 12 nM, mean of 3
  cell viability (relative to untreated = 100.00): 94.90
[3]; NAC 4 mM + DBG 12 nM, replicate 1
  cell viability (relative to untreated = 100.00): 97.37
[3]; NAC 4 mM + DBG 12 nM, replicate 2
  cell viability (relative to untreated = 100.00): 92.86
[3]; NAC 4 mM + DBG 12 nM, replicate 3
  cell viability (relative to untreated = 100.00): 94.46
[3]; NAC 4 mM, 3 h, DBG 48 h
  anticancer activity of DBG after NAC pretreatment: decreased
[3]; NAC 4 mM, DBG 12 nM
  cytotoxicity after NAC pretreatment: a little, if any, cytotoxicity only at 12 nM
[4]; DBG 3 nM
  apoptotic cells (annexin V+): 9.60%
[4]; DBG 6 nM
  apoptotic cells (annexin V+): 15.30%
[4]; DBG 12 nM
  apoptotic cells (annexin V+): 44.90%
[4]; DBG 3 nM, mean of 3 samples, untreated 1.21
  Dead: 1.72
[4]; DBG 3 nM, mean of 3 samples, untreated 1.30
  Early apoptosis: 3.33
[4]; DBG 3 nM, mean of 3 samples, untreated 3.48
  Late apoptosis/Dead: 6.27
[4]; DBG 3 nM, mean of 3 samples, untreated 4.78
  Total apopt: 9.60
[4]; DBG 3 nM, mean of 3 samples, untreated 94.01
  Live: 88.68
[4]; DBG 3 nM, replicate 1
  Dead: 1.90
  Early apoptosis: 3.35
  Late apoptosis/Dead: 5.90
  Live: 88.85
  Total apopt: 9.25
[4]; DBG 3 nM, replicate 2
  Dead: 1.75
  Early apoptosis: 3.40
  Late apoptosis/Dead: 5.90
  Live: 88.95
  Total apopt: 9.30
[4]; DBG 3 nM, replicate 3
  Dead: 1.50
  Early apoptosis: 3.25
  Late apoptosis/Dead: 7.00
  Live: 88.25
  Total apopt: 10.25
[4]; DBG 6 nM, mean of 3 samples, untreated 1.21
  Dead: 1.75
[4]; DBG 6 nM, mean of 3 samples, untreated 1.30
  Early apoptosis: 6.37
[4]; DBG 6 nM, mean of 3 samples, untreated 3.48
  Late apoptosis/Dead: 8.93
[4]; DBG 6 nM, mean of 3 samples, untreated 4.78
  Total apopt: 15.30
[4]; DBG 6 nM, mean of 3 samples, untreated 94.01
  Live: 82.95
[4]; DBG 6 nM, replicate 1
  Dead: 1.70
  Early apoptosis: 6.40
  Late apoptosis/Dead: 9.25
  Live: 82.65
  Total apopt: 15.65
[4]; DBG 6 nM, replicate 2
  Dead: 1.90
  Early apoptosis: 6.75
  Late apoptosis/Dead: 8.15
  Live: 83.20
  Total apopt: 14.90
[4]; DBG 6 nM, replicate 3
  Dead: 1.65
  Early apoptosis: 5.95
  Late apoptosis/Dead: 9.40
  Live: 83.00
  Total apopt: 15.35
[4]; DBG 12 nM, mean of 3 samples, untreated 1.21
  Dead: 4.72
[4]; DBG 12 nM, mean of 3 samples, untreated 1.30
  Early apoptosis: 19.42
[4]; DBG 12 nM, mean of 3 samples, untreated 3.48
  Late apoptosis/Dead: 25.48
[4]; DBG 12 nM, mean of 3 samples, untreated 4.78
  Total apopt: 44.90
[4]; DBG 12 nM, mean of 3 samples, untreated 94.01
  Live: 50.38
[4]; DBG 12 nM, replicate 1
  Dead: 4.65
  Early apoptosis: 19.00
  Late apoptosis/Dead: 25.05
  Live: 51.30
  Total apopt: 44.05
[4]; DBG 12 nM, replicate 2
  Dead: 4.15
  Early apoptosis: 19.25
  Late apoptosis/Dead: 25.30
  Live: 51.30
  Total apopt: 44.55
[4]; DBG 12 nM, replicate 3
  Dead: 5.35
  Early apoptosis: 20.00
  Late apoptosis/Dead: 26.10
  Live: 48.55
  Total apopt: 46.10
